# Source: ChEMBL document CHEMBL1201862, “PubChem BioAssay data set” (2004)
#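 Briefly, cells in 96-well plates were exposed to five compound concentrations for 48 h, and endpoints were estimated by linear interpolation. GI50: concentration for 50% inhibition of growth.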 Calls of active or inactive are those of the source. No stated cut-off is given here; in the data, active = GI50 up to about 1.1 µM and inactive = higher.
# Tests used:
# Assay in all cases: NCI anticancer screen, dose series, 48 h
# 786-0 = tested on: 786-0
# A498 = tested on: A498
# A549 = tested on: A549
# ACHN = tested on: ACHN
# CAKI-1 = tested on: CAKI-1
# CCRF-CEM = tested on: CCRF-CEM
# COLO 205 = tested on: COLO 205
# DU-145 = tested on: DU-145
# EKVX = tested on: EKVX
# HCC 2998 = tested on: HCC 2998
# HCT-116 = tested on: HCT-116
# HCT-15 = tested on: HCT-15
# HL-60 = tested on: HL-60
# HOP-62 = tested on: HOP-62
# HOP-92 = tested on: HOP-92
# HT-29 = tested on: HT-29
# Hs-578T = tested on: Hs-578T
# IGROV-1 = tested on: IGROV-1
# K562 = tested on: K562
# KM12 = tested on: KM12
# LOX IMVI = tested on: LOX IMVI
# M14 = tested on: M14
# MCF7 = tested on: MCF7
# MDA-MB-231 = tested on: MDA-MB-231
# MDA-MB-435 = tested on: MDA-MB-435
# MDA-N = tested on: MDA-N
# MOLT-4 = tested on: MOLT-4
# Malme-3M = tested on: Malme-3M
# NCI-H226 = tested on: NCI-H226
# NCI-H23 = tested on: NCI-H23
# NCI-H460 = tested on: NCI-H460
# NCI-H522 = tested on: NCI-H522
# NCI/ADR-RES = tested on: NCI/ADR-RES
# OVCAR-3 = tested on: OVCAR-3
# OVCAR-4 = tested on: OVCAR-4
# OVCAR-8 = tested on: OVCAR-8
# PC-3 = tested on: PC-3
# RPMI-8226 = tested on: RPMI-8226
# RXF 393 = tested on: RXF 393
# SF-268 = tested on: SF-268
# SF-295 = tested on: SF-295
# SF-539 = tested on: SF-539
# SK-MEL-28 = tested on: SK-MEL-28
# SK-MEL-2 = tested on: SK-MEL-2
# SK-MEL-5 = tested on: SK-MEL-5
# SK-OV-3 = tested on: SK-OV-3
# SN12C = tested on: SN12C
# SNB-19 = tested on: SNB-19
# SNB-75 = tested on: SNB-75
# SR = tested on: SR
# SW-620 = tested on: SW-620
# T47D = tested on: T47D
# TK-10 = tested on: TK-10
# U-251 = tested on: U-251
# UACC-257 = tested on: UACC-257
# UACC-62 = tested on: UACC-62
# UO-31 = tested on: UO-31
# OVCAR-5 = tested on: OVCAR-5
compound,measurement,setting,value
Clc1ccc(Cl)c(/N=N\c2cc3c4c(c2)CCN4CCC3)c1,GI50,786-0,> 10 µM (inactive)
same,GI50,A498,> 10 µM (inactive)
same,GI50,A549,> 10 µM (inactive)
same,GI50,ACHN,> 10 µM (inactive)
same,GI50,CAKI-1,> 10 µM (inactive)
same,GI50,CCRF-CEM,> 10 µM (inactive)
same,GI50,COLO 205,> 10 µM (inactive)
same,GI50,DU-145,> 10 µM (inactive)
same,GI50,EKVX,> 10 µM (inactive)
same,GI50,HCC 2998,> 10 µM (inactive)
same,GI50,HCT-116,> 10 µM (inactive)
same,GI50,HCT-15,> 10 µM
same,GI50,HL-60,> 10 µM (inactive)
same,GI50,HOP-62,> 10 µM (inactive)
same,GI50,HOP-92,> 10 µM (inactive)
same,GI50,HT-29,> 10 µM (inactive)
same,GI50,Hs-578T,> 10 µM (inactive)
same,GI50,IGROV-1,> 10 µM (inactive)
same,GI50,K562,> 10 µM (inactive)
same,GI50,KM12,> 10 µM (inactive)
same,GI50,LOX IMVI,> 10 µM (inactive)
same,GI50,M14,> 10 µM (inactive)
same,GI50,MCF7,> 10 µM (inactive)
same,GI50,MDA-MB-231,> 10 µM (inactive)
same,GI50,MDA-MB-435,> 10 µM (inactive)
same,GI50,MDA-N,> 10 µM (inactive)
same,GI50,MOLT-4,> 10 µM (inactive)
same,GI50,Malme-3M,> 10 µM (inactive)
same,GI50,NCI-H226,> 10 µM (inactive)
same,GI50,NCI-H23,> 10 µM (inactive)
same,GI50,NCI-H460,> 10 µM (inactive)
same,GI50,NCI-H522,> 10 µM (inactive)
same,GI50,NCI/ADR-RES,> 10 µM (inactive)
same,GI50,OVCAR-3,> 10 µM (inactive)
same,GI50,OVCAR-4,> 10 µM (inactive)
same,GI50,OVCAR-8,> 10 µM (inactive)
same,GI50,PC-3,> 10 µM (inactive)
same,GI50,RPMI-8226,> 10 µM (inactive)
same,GI50,RXF 393,8.65 µM (inactive)
same,GI50,SF-268,> 10 µM (inactive)
same,GI50,SF-295,> 10 µM (inactive)
same,GI50,SF-539,> 10 µM (inactive)
same,GI50,SK-MEL-28,> 10 µM (inactive)
same,GI50,SK-MEL-2,> 10 µM (inactive)
same,GI50,SK-MEL-5,> 10 µM (inactive)
same,GI50,SK-OV-3,> 10 µM (inactive)
same,GI50,SN12C,> 10 µM (inactive)
same,GI50,SNB-19,> 10 µM (inactive)
same,GI50,SNB-75,> 10 µM (inactive)
same,GI50,SR,> 10 µM (inactive)
same,GI50,SW-620,> 10 µM (inactive)
same,GI50,T47D,> 10 µM (inactive)
same,GI50,TK-10,> 10 µM (inactive)
same,GI50,U-251,> 10 µM (inactive)
same,GI50,UACC-257,> 10 µM (inactive)
same,GI50,UACC-62,> 10 µM (inactive)
same,GI50,UO-31,> 10 µM (inactive)
CO[C@@H]1/C=C\C=C(/C)C(=O)NC2=CC(=O)C(NCCN(C)C)=C(C[C@@H](C)C[C@@H](OC)[C@@H](O)[C@H](C)/C=C(\C)[C@H]1OC(N)=O)C2=O,GI50,786-0,< 0.0204 µM (active)
same,GI50,A549,< 0.0117 µM (active)
same,GI50,CCRF-CEM,< 0.0144 µM (active)
same,GI50,COLO 205,< 0.01 µM (active)
same,GI50,HCC 2998,< 0.0118 µM (active)
same,GI50,HCT-116,< 0.0132 µM (active)
same,GI50,HCT-15,0.345 µM
same,GI50,IGROV-1,< 0.01 µM (active)
same,GI50,KM12,< 0.01 µM (active)
same,GI50,LOX IMVI,< 0.01 µM (active)
same,GI50,M14,< 0.01 µM (active)
same,GI50,MDA-MB-435,< 0.01 µM (active)
same,GI50,MDA-N,< 0.01 µM (active)
same,GI50,MOLT-4,0.0166 µM (active)
same,GI50,Malme-3M,< 0.01 µM (active)
same,GI50,NCI-H460,< 0.01 µM (active)
same,GI50,OVCAR-4,0.841 µM (active)
same,GI50,OVCAR-8,< 0.0191 µM (active)
same,GI50,RPMI-8226,0.121 µM (active)
same,GI50,SK-OV-3,0.0121 µM (active)
same,GI50,SN12C,< 0.01 µM (active)
same,GI50,SNB-19,< 0.0236 µM (active)
same,GI50,U-251,< 0.01 µM (active)
same,GI50,UACC-257,0.0121 µM (active)
same,GI50,UACC-62,< 0.01 µM (active)
same,GI50,UO-31,0.652 µM (active)
CC(=O)OCC(C)C1=C(OC(C)=O)C(=O)C2(C)C/C=C(/C)CC/C=C(\C)CCC(OC(C)=O)C(C)CCC12 (centres undefined),GI50,786-0,13.7 µM (inactive)
same,GI50,ACHN,18.2 µM (inactive)
same,GI50,CCRF-CEM,22.4 µM (inactive)
same,GI50,COLO 205,20.8 µM (inactive)
same,GI50,DU-145,20.1 µM (inactive)
same,GI50,HCC 2998,15.8 µM (inactive)
same,GI50,HCT-116,16.9 µM (inactive)
same,GI50,HCT-15,16.9 µM
same,GI50,HL-60,10.9 µM (inactive)
same,GI50,HOP-62,14.2 µM (inactive)
same,GI50,HOP-92,7.23 µM (inactive)
same,GI50,HT-29,17.8 µM (inactive)
same,GI50,Hs-578T,25.4 µM (inactive)
same,GI50,IGROV-1,14.4 µM (inactive)
same,GI50,K562,13.3 µM (inactive)
same,GI50,KM12,17.8 µM (inactive)
same,GI50,LOX IMVI,16.9 µM (inactive)
same,GI50,M14,16.6 µM (inactive)
same,GI50,MCF7,21.3 µM (inactive)
same,GI50,MDA-MB-231,14.3 µM (inactive)
same,GI50,MDA-MB-435,15.9 µM (inactive)
same,GI50,MDA-N,17.1 µM (inactive)
same,GI50,MOLT-4,12.9 µM (inactive)
same,GI50,NCI-H460,3.55 µM (inactive)
same,GI50,OVCAR-4,17.4 µM (inactive)
same,GI50,OVCAR-5,12.8 µM (inactive)
same,GI50,OVCAR-8,19.1 µM (inactive)
same,GI50,PC-3,14.3 µM (inactive)
same,GI50,RPMI-8226,14.3 µM (inactive)
same,GI50,SF-268,15.4 µM (inactive)
same,GI50,SF-295,15.8 µM (inactive)
same,GI50,SF-539,22.2 µM (inactive)
same,GI50,SK-MEL-28,17.3 µM (inactive)
same,GI50,SK-MEL-2,15 µM (inactive)
same,GI50,SK-MEL-5,15.3 µM (inactive)
same,GI50,SN12C,20.1 µM (inactive)
same,GI50,SNB-19,17.3 µM (inactive)
same,GI50,SNB-75,24.7 µM (inactive)
same,GI50,SR,17.9 µM (inactive)
same,GI50,SW-620,19.5 µM (inactive)
same,GI50,T47D,16.1 µM (inactive)
same,GI50,TK-10,19.6 µM (inactive)
same,GI50,U-251,17.1 µM (inactive)
same,GI50,UACC-257,17.5 µM (inactive)
same,GI50,UACC-62,14.4 µM (inactive)
same,GI50,UO-31,16.8 µM (inactive)
